According to publication PMC8191789 (2021):

Key:
[1] = tested on: 3'-TAMRA-labeled Myc2345_T23 (DNA, G4) TGAGGGTGGGTAGGGTGGGTAA; experiment: TAMRA fluorescence quenching titration; details: K+ (25 mM potassium phosphate, 75 mM KCl); pH 7, 25°C; 100 nM DNA
[2] = tested on: Myc2345 (DNA, G4) TGAGGGTGGGTAGGGTGGGGAA; experiment: CD melting (260 nm); details: K+ 0.6 mM; potassium phosphate, pH 7; 5 μM DNA, 25 μM PEQ
[3] = tested on: Myc2345_T23 (DNA, G4) TGAGGGTGGGTAGGGTGGGTAA; experiment: fluorescence competition (TAMRA quenching restored by unlabeled DNA); details: K+ (25 mM potassium phosphate, 75 mM KCl); pH 7, 25°C; C50 is concentration of competing unlabeled DNA; 100 nM 3'-TAMRA-Myc2345_T23, PEQ 10:1
[4] = tested on: Myc2345_T23 (DNA, G4) TGAGGGTGGGTAGGGTGGGTAA; experiment: CD melting (260 nm); details: K+ 0.6 mM; potassium phosphate, pH 7; 5 μM DNA, 25 μM PEQ
[5] = tested on: Myc2345 (DNA, G4) TGAGGGTGGGTAGGGTGGGGAA; experiment: NMR solution structure; details: K+ 10 mM (potassium phosphate); pH 7.0; PEQ:DNA 3:1; end-stacking on 5'- and 3'-tetrads
[6] = tested on: Myc2345_T23 (DNA, G4) TGAGGGTGGGTAGGGTGGGTAA; experiment: NMR solution structure; details: K+ 10 mM (potassium phosphate); pH 6.5; PEQ:DNA 3:1; end-stacking on 5'- and 3'-tetrads
[7] = tested on: Myc2345 (DNA, G4) TGAGGGTGGGTAGGGTGGGGAA; experiment: fluorescence competition (TAMRA quenching restored by unlabeled DNA); details: K+ (25 mM potassium phosphate, 75 mM KCl); pH 7, 25°C; C50 is concentration of competing unlabeled DNA; 100 nM 3'-TAMRA-Myc2345_T23, PEQ 10:1

- binding [1]: yes
- ΔTm [2]: 20.1 ± 0.6 °C
- C50 [3]: 3.71 µM
- ΔTm [4]: 21.1 ± 1.3 °C
- binding [5]: yes
- binding [6]: yes
- C50 [7]: 4.86 µM
Structure (SMILES): COc1cc(/C=C/c2cc(C(N)=O)c3ccccc3[n+]2C)ccc1O
